US20230257374A1, “NOVEL KRAS G12C PROTEIN INHIBITOR, PREPARATION METHOD THEREFOR, AND USE THEREOF” (INNOVENT BIOLOGICS (SUZHOU) CO., LTD., priority 2019, published 2023)
Read-outs that look alike come from different tables or passages of the source.

Experiments:
[1] = system: H1373 cell line (K-RAS G12C); assay: cells; type: cell-based; details: Homo sapiens, NCI-H1373, 96 h, read-out: H1373 (K-RAS G12C) IC50
Method: (§1) a) On day 1, seed cells were placed in T75 a flask. b) On day 3, the medium was taken out and washed once with DPBS. c) Cells were trypsinized with 2 mL TrypLE™ Express enzyme at room temperature (RT) or 37° C. until cells detached. d) 5 mL of fresh medium was added to suspend the cells, and then the suspension was centrifuged at 1000 rpm and room temperature for 5 min. e) The supernatant was discarded, and the cells were resuspended in 5 mL of fresh medium and counted using Countess™ H. f) The cells were seeded back into the T75 flask for further culture or placed into an assay plate for 3D cell proliferation assay.
(§2) The cells were seeded at a density of 600 cells/well in a 384-well plate with 40 μL of medium per well and a final DMSO concentration of 0.5%. b) On day 4, a 3D CTG reagent was added to each well, followed by shaking at room temperature for 1 h. c) The signals were recorded using Envision.
(§3) a) Robustness was examined using 0.5% DMSO and data of blank control medium: H=mean (DMSO); L=mean (medium); SD (H)=STDEV (DMSO); SD (L)=STDEV (medium);
(§4) Y=peak valley value+(peak top value−peak valley value)/(1+10^((Log IC50−X)×HillSlope));
(§5) X: logarithm of compound concentration; Y: percent inhibition (% inhibition); Peak top and peak valley values: the plateau period units are the same as Y; log IC50: the same logarithmic unit as X; HillSlope: slope coefficient or Hill slope.

[2] = system: MIA PaCa-2 cell line (K-RAS G12C); assay: cells; type: cell-based; details: Homo sapiens, MIA PaCa-2, 96 h, read-out: MIA PaCa-2 (K-RAS G12C) IC50
Method: as §1, §2, §3, §4, §5

[3] = system: H358 cell line (K-RAS G12C); assay: cells; type: cell-based, human; details: Homo sapiens, NCI-H358, 96 h, read-out: H358 (K-RAS G12C) IC50
Method: as §1, §2, §3, §4, §5

in vitro [4] = details: microsomes; for half-life at 1 μM / microsomal CLint at 1 μM: pH 7.4
Method: To examine the in vitro metabolic stability of the test compounds in liver microsomes of different species, representative compounds were selected, and their stability was evaluated by measuring the concentration of the test compounds in the incubation system using LC/MS/MS and calculating their intrinsic clearance in the microsome system.
The method is specifically as follows: each compound was first dissolved in DMSO to prepare a 200 μM working solution and added to the system solution at the time of testing to form a solution with a final concentration of 1 μM.
The microsomes were stored in a −80° C. freezer.
Preparation of incubation system: an incubation system was prepared as described in the table below.
25 μL, of NADPH or phosphate buffered saline was transferred to the incubation system described above, and 2 μL, of 200 μM of the test compound or verapamil was added. The sample with NADPH added was prepared in duplicate; the NADPH negative sample was prepared in single parallel. 30 μL, of suspension was taken at 0.5, 5, 15, 30 and 60 minutes. The reaction system was terminated by adding 180 μL, of acetonitrile containing an internal standard and vortexed for 10 min. […] 100 μL, of the supernatant was transferred to a feeding plate, and 100 μL, of purified water was added. The mixture was well mixed for UPLC-MS/MS analysis.
The results based on the data were obtained by calculation according to the peak area ratio, and the peak area was detected through an extracted ion chromatogram.
The slope value (k) was determined by linear fitting of the natural logarithm of drug elimination percentage over time.

[5] = system: NCI-H358 tumor (K-RAS G12C mutation); type: in vivo, BALB/c nude mice
Method: The cells were digested with trypsin-EDTA twice a week for passaging as per conventional practice. When the cell saturation reached 80%-90% and a required amount was achieved, the cells were collected and counted for later use. […] 5% DMSO/5% Solutol/90% water was used as a blank control. 3) Tumor inoculation and drug administration: BALB/c nude mice, female, 6-8 weeks old, weighing 18-20 g. The experiment started after 3-7 days of adaptive feeding. 0.1 mL of NCI-H358 cells (5×10^6 cells) were inoculated subcutaneously on the right back of each mouse. The mice were grouped for administration when the average tumor volume reached approximately 150 mm^3. The animals were weighed before administration and the tumor volume was measured. Grouping was randomly performed according to the tumor volume.
Animals were monitored daily for health and death, and routine examinations include observation of the effect of tumor growth and drug treatment on the daily performance of the animals, such as behavioral activities, food and water intake, weight changes (measured once every other day), appearance, or other abnormal conditions. Animal mortality and side effects within each group were recorded based on the number of animals in the group.
Tumor diameters were measured 2-3 times weekly using a vernier caliper.
The tumor volume was calculated as follows: […]
where a and b represent the long and short diameters of the tumor, respectively.
The anti-tumor therapeutic effect of the compound was evaluated by tumor growth inhibition rate TGI (%) or relative tumor proliferation rate T/C (%).
TGI (%) was calculated as follows: […]
T/C (%) was calculated as follows: […]
where TRTV represents the relative tumor volume of the treatment group; CRTV represents the relative tumor volume of the solvent control group.
Based on the results of tumor measurement, the relative tumor volume (RTV) was calculated as follows: […]
where V0 represents the average tumor volume measured at the time of grouping and administration (i.e., d0), Vt represents the average tumor volume in a certain measurement, and TRTV and CRTV take the data on the same day.
After the completion of the experiment, tumors were weighed, and the percentage of Tweight/Cweight was calculated, where Tweight and Cweight represent the tumor weights of the treatment group and the solvent control group, respectively.
Data calculation and analysis: T test was employed for comparison between two groups. One-way ANOVA was employed for comparison between three or more groups. If there is a significant difference in F-values, multiple comparisons should be made after ANOVA analysis. All data analyses were performed with SPSS 17.0. p<0.05 was defined as a significant difference.

[6] = human, plasma; for Remaining percentage (%) 0 min: 0 h; for Remaining percentage (%) 30 min: 0.5 h; for Remaining percentage (%) 60 min: 1 h; for Remaining percentage (%) 120 min: 2 h; for Remaining percentage (%) 180 min: 3 h; for Remaining percentage (%) 240 min: 4 h
Method: (§6) To examine the stability of the test compounds in plasma, representative compounds were selected for evaluation.
(§7) Preparation of stock solution: a test compound was dissolved in DMSO to prepare a 1 mM stock solution for later use; Propantheline Bromide was dissolved in acetonitrile to prepare a 1 mM stock solution as a positive control for later use.
(§8) To each well was added 2 μL of the stock solution of the test compound and the stock solution of the positive control such that the final concentrations were 5 KM and the concentration of the organic solvent was 0.5%. Each compound was prepared in duplicate, followed by incubation at 37° C. 50 μL of samples were taken from the reaction samples in equal amounts at 0, 30, 60, 120, 180 and 240 minutes, and 450 μL of cold acetonitrile containing an internal standard was added to terminate the reaction. […] 100 μL of the supernatants were transferred to a new plate, dilute with ultra-pure water, and analyzed by LC-MS/MS.
(§9) Data results were calculated according to peak area ratios.
(§10) The percentage of remaining compound for each time point was calculated as follows:
(§11) Remaining percentagemin(%)=peak area ratiosmin/peak area ratiomin×100%
(§12) where peak area ratios represents the peak area ratio of the test compound to the internal standard compound at t min; peak area ratiomin represents the peak area ratio of the test compound to the internal standard compound at 0 min (initial).

in vitro [7] = details: human, plasma
Method: as §6, §7, §8, §9, §10, §11, §12

Caco-2 cells = assay: in vitro; details: Caco-2
Method: Drug penetration test: the Transwell culture plate was retrieved from the incubator. […] All samples were prepared in double parallel. The integrity of the cell monolayer membrane after 2 hours of incubation was assessed using leakage of fluorescein; fluorescein stock solution was diluted with HBSS (25 mM HEPES, pH 7.4) to a final concentration of 100 μM. 100 μL of fluorescein solution was added to each well of the upper Transwell plate and 300 μL of HBSS (25 mM HEPES, pH 7.4) was added to each well of the lower receiving plate; after incubation at 37° C. for 30 min, 80 μL of the solution was pipetted from the upper and lower layers of each well to a new 96-well plate.
The apparent permeability coefficients (Papp, unit: cm/s) of the compounds in Caco-2 cells were calculated from the specific concentrations at the acceptor and donor ends, and the specific calculation formula is as follows: […]
where VA represents the volume of the acceptor end solution (0.3 mL for Ap→Bl, 0.1 mL for Bl→Ap); Area represents the area of the Transwell-96 well plate (0.143 cm^2); time represents the incubation time (unit: s); [drug]acceptor represents the drug concentration (ratio of peak area to internal standard area) at the acceptor end; [drug]initial, donor represents the drug concentration at the donor end (ratio of peak area to internal standard area).
The efflux ratio was calculated as follows: […]
where Papp (B-A) represents the apparent permeability coefficient from base end to top end; Papp (A-B) represents the apparent permeability coefficient from top end to base end.

[8] = Day 0 (at grouping, before administration), 15 mg/kg PO QD group

SMILES: [2H]C([2H])([2H])N1CCC[C@H]1COc1nc2c(c(N3CCN(C(=O)C=C)[C@@H](CC#N)C3)n1)CCN(c1cccc3cccc(Cl)c13)C2 [Compound 41, 2-((S)-1-acryloyl-4-(7-(8-chloronaphthalene-1-yl)-2-(((S)-1-(methyl-d3)pyrrolidin-2-yl)methoxy)-5,6,7,8-tetrahydropyrido[3,4-d]pyrimidin-4-yl)piperazin-2-yl)acetonitrile]
- IC50 [1]: 0.18 nM
- IC50 [2]: 0.31 nM
- IC50 [3]: 0.28 nM
- half-life at 1 μM (in vitro [4]; ICR (CD-1), mouse): 14.6 min
- microsomal CLint at 1 μM (in vitro [4]; ICR (CD-1), mouse): 95.3 µL/min/mg
- half-life at 1 μM (in vitro [4]; human): 26 min
- microsomal CLint at 1 μM (in vitro [4]; human): 53.4 µL/min/mg
- Day 0 Body weight (g) Waverage ± SEM [5, 8]: 22.7 ± 0.4 g
- Day 0 Tumor volume (mm^3) Vaverage ± SEM [5, 8]: 151 ± 8 mm^3
- Day 21 Body weight (g) Waverage ± SEM ([5]; Day 21, 15 mg/kg PO QD): 23.4 ± 0.6 g
- Day 21 Tumor volume (mm^3) Vaverage ± SEM ([5]; Day 21, 15 mg/kg PO QD): 168 ± 20 mm^3
- Tumor inhibition rate TGI (%) ([5]; Day 21, 15 mg/kg PO QD): 97.0%
- Tumor regression ([5]; Day 21, 15 mg/kg PO QD, animals with regression / group of 8): 2/8
- Remaining percentage (%) 0 min ([6]; 5 μM): 100.00%
- Remaining percentage (%) 30 min ([6]; 5 μM): 96.01%
- Remaining percentage (%) 60 min ([6]; 5 μM): 75.85%
- Remaining percentage (%) 120 min ([6]; 5 μM): 56.99%
- Remaining percentage (%) 180 min ([6]; 5 μM): 34.80%
- Remaining percentage (%) 240 min ([6]; 5 μM): 26.83%
- half-life at 5 μM (in vitro [7]): 119 min

SMILES: C=CC(=O)N1CCN(c2nc(OC[C@@H]3CCCN3C)nc3c2CCN(c2cccc4cccc(C)c24)C3)C[C@@H]1CC#N [MRTX-1257, reference compound]
- Efflux ratio (Caco-2 cells): 16.31
- CLint (μL/min/mg protein) (in vitro [4]; human): 54.30 μL/min/mg protein
- t1/2 (in vitro [4]; human): 25.58 min
- CLint (μL/min/mg protein) (in vitro [4]; mouse): 74.97 μL/min/mg protein
- t1/2 (in vitro [4]; mouse): 18.49 min
- t1/2 [6]: 96.47 min
- Remaining percentage (%) 0 min [6]: 100.00%
- Remaining percentage (%) 30 min [6]: 88.91%
- Remaining percentage (%) 60 min [6]: 82.31%
- Remaining percentage (%) 120 min [6]: 55.64%
- Remaining percentage (%) 180 min [6]: 32.06%
- Remaining percentage (%) 240 min [6]: 18.12%
